Test results taken from PubChem BioAssay (NCI).
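Assay format: 96-well plates, 48-hour exposure. The concentration for 50% growth inhibition is given as GI50. The concentration for full growth arrest is given as TGI.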

Columns and labels:
Experiment in all cases: inhibition of tumour cell growth, NCI panel, 48 h
BT-549 breast = tested on: BT-549 breast
KM12 colon = tested on: KM12 colon
LOX IMVI melanoma = tested on: LOX IMVI melanoma
OVCAR-5 ovarian = tested on: OVCAR-5 ovarian
SF-268 CNS = tested on: SF-268 CNS
SF-539 CNS = tested on: SF-539 CNS
UACC-257 melanoma = tested on: UACC-257 melanoma
UO-31 renal = tested on: UO-31 renal
HS 578T breast = tested on: HS 578T breast
SK-MEL-2 melanoma = tested on: SK-MEL-2 melanoma

| SMILES | GI50 (BT-549 breast) [µM] | TGI (BT-549 breast) [µM] | GI50 (KM12 colon) [µM] | TGI (KM12 colon) [µM] | GI50 (LOX IMVI melanoma) [µM] | TGI (LOX IMVI melanoma) [µM] | GI50 (OVCAR-5 ovarian) [µM] | TGI (OVCAR-5 ovarian) [µM] | GI50 (SF-268 CNS) [µM] | TGI (SF-268 CNS) [µM] | GI50 (SF-539 CNS) [µM] | TGI (SF-539 CNS) [µM] | GI50 (UACC-257 melanoma) [µM] | TGI (UACC-257 melanoma) [µM] | GI50 (UO-31 renal) [µM] | TGI (UO-31 renal) [µM] | GI50 (HS 578T breast) [µM] | TGI (HS 578T breast) [µM] | GI50 (SK-MEL-2 melanoma) [µM] | TGI (SK-MEL-2 melanoma) [µM] |
| --- | --- | --- | --- | --- | --- | --- | --- | --- | --- | --- | --- | --- | --- | --- | --- | --- | --- | --- | --- | --- |
| CN(CCNCc1ccccn1)CCNCc1ccccn1 | 1.98 | 4.63 | 3.11 | 10.1 | 2.48 | 6.88 | 2.66 | 8.57 | 3.96 | 15.4 | 2.06 | 5.33 | 1.97 | 3.85 | 1.73 | 3.9 | – | – | – | – |
| N#CCN1CCn2c1nsc2=S | > 100 | > 100 | 88.9 | > 100 | > 100 | > 100 | – | – | > 100 | > 100 | > 100 | > 100 | > 100 | > 100 | 44.8 | > 100 | > 100 | > 100 | > 100 | > 100 |
| NC(=O)NNC(=O)NC12CC3CC(CC(C3)C1)C2 | – | – | – | > 100 | – | > 100 | – | > 100 | – | > 100 | – | > 100 | – | > 100 | – | > 100 | – | – | – | > 100 |
| Cc1ccc(C)c(N2C(=O)C(=O)C(c3nc4ccccc4s3)/C(=N/NC(=O)NN)C2=O)c1 (stereo not given) | – | – | – | > 100 | – | – | – | – | – | > 100 | – | > 100 | – | > 100 | – | > 100 | – | – | – | > 100 |
| Cc1ccc(S(=O)(=O)N/N=C(/CC(=O)c2c(C)n([O-])c3ccccc3[n+]2=O)C(=O)Nc2ccccc2C)cc1 | – | – | – | > 100 | – | – | – | > 100 | – | > 100 | – | > 100 | – | > 100 | – | > 100 | – | – | – | > 100 |
| O=C(Nc1cccc(-n2cc(-c3ccncc3)c(-c3cc(O)cc(Cl)c3)n2)c1)c1cc(C(F)(F)F)cc(C(F)(F)F)c1 | 4.65 | 46.6 | – | – | 3.29 | 13.7 | 8.23 | 38.4 | 6.38 | > 100 | 5.01 | 51.7 | 4.23 | 51.2 | 2.5 | > 100 | 6.38 | > 100 | 3.28 | 9.51 |
| O=C(CC1SC(=Nc2ccccc2Cl)NC1=O)Nc1ccc(Cl)cc1Cl (stereo not given) | – | – | – | > 100 | – | > 100 | – | > 100 | – | > 100 | – | – | – | > 100 | – | > 100 | – | – | – | > 100 |
| N#CC(c1ccccn1)c1nc2ccccc2[nH]1 (stereo not given) | – | – | – | – | – | – | – | > 100 | – | > 100 | – | – | – | > 100 | – | > 100 | – | – | – | > 100 |
| C[CH2][Sn]([CH2]C)([O]C(=O)c1ccccc1OC)[O][Sn]([CH2]C)([CH2]C)[O]C(=O)c1ccccc1OC | – | – | > 100 | > 100 | 73 | > 100 | > 100 | > 100 | > 100 | > 100 | > 100 | > 100 | > 100 | > 100 | > 100 | > 100 | – | – | 91.5 | > 100 |
| Cc1ccc(NC(=O)CC2C(=O)Nc3ccccc3S2(=O)=O)c(C)c1 (stereo not given) | – | – | – | – | – | 29 | – | 46.9 | – | 39.6 | – | 30.8 | – | 55 | – | 39.8 | – | – | – | 73.8 |
| C=CNC(=O)NC(=O)CSc1nnc(-c2ccccc2NC(=O)C(F)(F)F)c(=O)[nH]1 | – | – | – | > 100 | – | > 100 | – | > 100 | – | > 100 | – | > 100 | – | – | – | > 100 | – | – | – | > 100 |
| NC(=O)c1csc(C2OC(COP(=O)(O)CP(=O)(O)OCC3OC(n4cnc5c(N)ncnc54)C(O)C3O)C(O)C2O)n1 (stereo not given) | – | – | – | > 100 | – | > 100 | – | > 100 | – | > 100 | – | > 100 | – | > 100 | – | > 100 | – | – | – | > 100 |
| COc1cc2c(cc1OC)-c1ncc3c(OC)c(OC)c(OC)cc3c1C2 | – | – | 33.8 | > 100 | – | – | 26.6 | > 100 | 4.97 | 16.5 | – | – | – | – | 3.41 | 15.7 | – | – | 0.0541 | 23.5 |
| O=C(O)/C=C/c1nc2ccccc2c(=O)o1 | – | – | – | > 100 | – | > 100 | – | – | – | – | – | > 100 | – | – | – | > 100 | – | – | – | > 100 |
| O=S(=O)(c1cccc(N=C=S)c1)c1cccc(N=C=S)c1 | – | – | – | 61.5 | – | 31.6 | – | > 100 | – | 39.8 | – | – | – | 38.5 | – | 75.1 | – | – | – | 33.8 |
| CC(C)(O)CNc1nc(Nc2ccnc(C(F)(F)F)c2)nc(-c2cccc(C(F)(F)F)n2)n1 | 16.7 | 39.7 | 16.4 | 43.7 | 17.3 | 32.6 | 22.5 | 63 | 23.1 | 76.4 | 16.6 | 42.7 | 21.7 | 43.6 | 19.9 | 50.4 | 27.8 | 75.9 | – | – |
| C/C(=C\c1cnc(C)s1)[C@@H]1C[C@@H]2O[C@@H]2CCC[C@H](C)[C@H](O)[C@@H](C)C(=O)C(C)(C)[C@@H](O)CC(=O)O1 | < 0.01 | > 100 | < 0.01 | > 100 | < 0.01 | > 100 | < 0.01 | > 100 | – | – | < 0.01 | > 100 | – | – | < 0.0105 | > 100 | 0.0117 | > 100 | < 0.0146 | > 100 |
| COCOCC/C=C/C=O | – | – | – | > 100 | – | > 100 | – | > 100 | – | > 100 | – | > 100 | – | > 100 | – | > 100 | – | – | – | > 100 |
| C#CCNC(=O)[C@H](CC)[C@H]1CC[C@H](C)[C@H]([C@@H](C)[C@H](O)[C@H](C)C(=O)[C@H](CC)C2O[C@]3(C=CC(=O)[C@]4(CC[C@@](C)([C@H]5CC[C@](O)(CC)[C@H](C)O5)O4)O3)[C@H](C)C[C@@H]2C)O1 (stereo not given in full) | 1.83 | 3.93 | – | – | 2.06 | 4.83 | 2.62 | 8.16 | 2.08 | 6.37 | 1.75 | 3.36 | 1.94 | 4.88 | 2.01 | 7.81 | 2.06 | 6.71 | 2.44 | 7.31 |
